Key:
DDB1ΔB-CRBN = DDB1ΔB-CRBN (Homo sapiens (Human), UniProt Q96SW2); assay: Atto565-Lenalidomide displacement assay (fluorescence polarization, CRBN binding); conditions: for IC50: 10 nM Atto565-Lenalidomide, 100 nM DDB1ΔB-CRBN, n=2; for Ki: calculated from IC50 with probe Kd of 40 nM, competitive model
Description: Various inventive compounds were analyzed for cereblon binding. […] Compound titrations were incubated for 60 min at room temperature. The change in fluorescence polarization was monitored using a PHERAstar® FS microplate reader (BMG Labtech) for 1 h in 120s cycles.

CRBN = CRBN (Homo sapiens (Human), UniProt Q96SW2); assay: Cellular CRBN dBET6 displacement assay (BRD4BD2-GFP/mCherry reporter cells); assay type: cell-based; conditions: Flip-In 293 cells stably expressing BRD4BD2-GFP, 100 nM dBET6, 5 hours; read-out: Cellular CRBN-BRD4 dBET6 displacement EC50
Description: BRD4BD2 were subcloned into mammalian pcDNA5/FRT Vector (Ampicillin and Hygromycin B resistant) modified to contain MCS-eGFP-P2A-mCherry. […] Following a 2-3 passage cycle, FACS (FACSAria™ II, BD) was used to enrich for cells expressing eGFP and mCherry.
Signal from minimal 3000 events per well was acquired and the eGFP and mCherry florescence monitored. Data was analyzed using FlowJo® (FlowJo®, LCC). […] The eGFP protein abundance relative to mCherry was then quantified as a ten-fold amplified ratio for each individual cell using the formula: 10×eGFP/mCherry. The median of the ratio was then calculated per set, normalized to the median of the DMSO ratio.
This assay provided a readout of cellular CRBN binding impacted by the permeability of the molecule tested.

Chain of DDB1ΔB-CRBN (Q96SW2 whole entry, stated change not applied): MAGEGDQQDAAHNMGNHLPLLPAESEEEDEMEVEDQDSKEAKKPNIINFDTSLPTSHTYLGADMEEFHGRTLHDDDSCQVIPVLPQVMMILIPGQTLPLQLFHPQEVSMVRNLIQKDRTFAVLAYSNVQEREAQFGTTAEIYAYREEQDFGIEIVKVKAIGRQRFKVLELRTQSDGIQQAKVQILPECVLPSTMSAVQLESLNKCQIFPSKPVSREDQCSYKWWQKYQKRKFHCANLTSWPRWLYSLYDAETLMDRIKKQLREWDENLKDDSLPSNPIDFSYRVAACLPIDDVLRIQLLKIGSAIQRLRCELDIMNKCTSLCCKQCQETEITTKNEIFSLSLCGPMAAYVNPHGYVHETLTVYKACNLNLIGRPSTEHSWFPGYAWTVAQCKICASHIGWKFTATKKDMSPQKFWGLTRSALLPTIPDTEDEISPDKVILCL
Chain of CRBN (Q96SW2 whole entry): as the sequence (Q96SW2 whole entry, stated change not applied) above

SMILES | IC50 (DDB1ΔB-CRBN) | Ki (DDB1ΔB-CRBN) | EC50 (CRBN)
O=C1CCC(N2Cc3c(NC(=O)CNc4ccnc(Nc5ccccc5F)n4)cccc3C2=O)C(=O)N1 (centres unmarked) [Compound 1, N-(2-(2,6-dioxopiperidin-3-yl)-1-oxoisoindolin-4-yl)-2-((2-((2-fluorophenyl)amino)pyrimidin-4-yl)amino)acetamide] | 29.7 µM | 8.5 µM | 
O=C1CCC(N2Cc3c(NC(=O)CNc4ccnc(N5CCC[C@H]5CO)n4)cccc3C2=O)C(=O)N1 (stereo partly drawn) [Compound 4, N-(2-(2,6-dioxopiperidin-3-yl)-1-oxoisoindolin-4-yl)-2-((2-((S)-2-(hydroxymethyl)pyrrolidin-1-yl)pyrimidin-4-yl)amino)acetamide] | 8.5 µM | 2.4 µM | 
O=C1CCC(N2Cc3c(NC(=O)CNc4ccnc(Nc5ccc6c(c5)OCO6)n4)cccc3C2=O)C(=O)N1 (centres unmarked) [Compound 5, 2-((2-(benzo[d][1,3]dioxol-5-ylamino)pyrimidin-4-yl)amino)-N-(2-(2,6-dioxopiperidin-3-yl)-1-oxoisoindolin-4-yl)acetamide] | 42.5 µM | 12.2 µM | 
COc1ccc(Nc2nccc(NCC(=O)Nc3cccc4c3CN(C3CCC(=O)NC3=O)C4=O)n2)cc1 (centres unmarked) [Compound 7, N-(2-(2,6-dioxopiperidin-3-yl)-1-oxoisoindolin-4-yl)-2-((2-((4-methoxyphenyl)amino)pyrimidin-4-yl)amino)acetamide] | 38.9 µM | 11.1 µM | 
CC(C)n1cnc2c(Nc3cccc4c3CN(C3CCC(=O)NC3=O)C4=O)nc(Nc3ccc4c(c3)CCC4)nc21 (centres unmarked) [Compound 53, 3-(4-((2-((2,3-dihydro-1H-inden-5-yl)amino)-9-isopropyl-9H-purin-6-yl)amino)-1-oxoisoindolin-2-yl)piperidine-2,6-dione] |  |  | 665 nM

The remaining lines, values ahead:

IC50 (DDB1ΔB-CRBN) | Ki (DDB1ΔB-CRBN) | EC50 (CRBN) | SMILES
12.5 µM | 13.6 µM |  | O=C1CCC(N2Cc3c(NC(=O)CNc4ccnc(NCc5ccc6c(c5)OCO6)n4)cccc3C2=O)C(=O)N1 (centres unmarked) [Compound 3, 2-((2-((benzo[d][1,3]dioxol-5-ylmethyl)amino)pyrimidin-4-yl)amino)-N-(2-(2,6-dioxopiperidin-3-yl)-1-oxoisoindolin-4-yl)acetamide]
22.9 µM | 6.5 µM |  | O=C1CCC(N2Cc3c(NC(=O)CNc4ccnc(NCCCN5CCCC5=O)n4)cccc3C2=O)C(=O)N1 (centres unmarked) [Compound 6, N-(2-(2,6-dioxopiperidin-3-yl)-1-oxoisoindolin-4-yl)-2-((2-((3-(2-oxopyrrolidin-1-yl)propyl)amino)pyrimidin-4-yl)amino)acetamide]
22.1 µM | 6.3 µM |  | COc1cccc(-c2nccc(NCC(=O)Nc3cccc4c3CN(C3CCC(=O)NC3=O)C4=O)n2)c1 (centres unmarked) [Compound 9, N-(2-(2,6-dioxopiperidin-3-yl)-1-oxoisoindolin-4-yl)-2-((2-(3-methoxyphenyl)pyrimidin-4-yl)amino)acetamide]
18.9 µM | 5.4 µM |  | COc1ccc(OC)c(-c2nccc(NCC(=O)Nc3cccc4c3CN(C3CCC(=O)NC3=O)C4=O)n2)c1 (centres unmarked) [Compound 10, 2-((2-(2,5-dimethoxyphenyl)pyrimidin-4-yl)amino)-N-(2-(2,6-dioxopiperidin-3-yl)-1-oxoisoindolin-4-yl)acetamide]
14.7 µM | 4.2 µM |  | O=C1CCC(N2Cc3c(NC(=O)CNc4ccnc(-c5ccc(F)cc5)n4)cccc3C2=O)C(=O)N1 (centres unmarked) [Compound 11, N-(2-(2,6-dioxopiperidin-3-yl)-1-oxoisoindolin-4-yl)-2-((2-(4-fluorophenyl)pyrimidin-4-yl)amino)acetamide]
13.8 µM | 3.9 µM |  | CC(=O)c1ccc(-c2nccc(NCC(=O)Nc3cccc4c3CN(C3CCC(=O)NC3=O)C4=O)n2)cc1 (centres unmarked) [Compound 12, 2-((2-(4-acetylphenyl)pyrimidin-4-yl)amino)-N-(2-(2,6-dioxopiperidin-3-yl)-1-oxoisoindolin-4-yl)acetamide]
28.9 µM | 8.3 µM |  | O=C1CCC(N2Cc3c(NC(=O)CNc4ccnc(-c5cc6ccccc6o5)n4)cccc3C2=O)C(=O)N1 (centres unmarked) [Compound 13, 2-((2-(benzofuran-2-yl)pyrimidin-4-yl)amino)-N-(2-(2,6-dioxopiperidin-3-yl)-1-oxoisoindolin-4-yl)acetamide]

— patent US11530219B2, “Ligands to cereblon (CRBN)” (DANA-FARBER CANCER INSTITUTE, INC., priority 2018, dated 2022)
